Values of other authors, collected in patent publication US20240398989A1, “METHODS AND COMPOSITIONS FOR DIAGNOSIS AND TREATMENT OF METABOLIC DISORDERS” (The Broad Institute, Inc., priority 2021, published 2024).

Details: cited from earlier work
[1] = 1 year follow up clinical trial

For `CC1(C)CCC(CN2CCN(c3ccc(C(=O)NS(=O)(=O)c4ccc(NCC5CCOCC5)c([N+](=O)[O-])c4)c(Oc4cnc5[nH]ccc5c4)c3)CC2)=C(c2ccc(Cl)cc2)C1` [venetoclax], the “hyperglycemia, share of patients” value [1] is given as 16%, the “severe hyperglycemia, share of patients” value [1] is given as 5% and the “loss of body weight, share of cases” value (clinical trial) is given as 11-13%.
